The text below walks through data of patent US20260293937A1, “SHRIMP FEED AND METHODS OF USE THEREOF” (Organicin Scientific, Inc., priority 2023, published 2026).

No end group written: not given here.

The subject of data set [1] is brine shrimp (Artemia salina). In words: Brine shrimp toxicity of EDTA (Example 5). The data set is classed as in vivo. Particulars: for mortality at 20000 µM: Artemia salina, 20 mM; for mortality: concentrations less than or equal to 400 µM. The text has this: This Example describes the toxicity and efficacy of EDTA in reducing pathogenesis and promoting survival of shrimp. Brine shrimp (Artemia salina) were utilized as a model organism to simulate potential impacts on Pacific whiteleg shrimp (Penaeus vannamei).
Artemia salina (a species of brine shrimp) were used. Additional materials included: ethylenediaminetetraacetic acid (EDTA; 99% pure) powder (USB Corporation Instant Ocean (Instant Ocean Spectrum Brands. Blacksburg, VA); and Artemia salina eggs were used.
Artemia salina eggs were hatched in artificial seawater (Instant Ocean) under controlled conditions. Newly hatched brine shrimp were then exposed to varying concentrations of EDTA in experimental tanks. A separate set of tanks was used for each concentration of EDTA (20 mM, 400 uM, 200 uM, and 100 uM).
Control tanks treated with saline water were prepared to observe the natural behavior and survival rate of Artemia salina without EDTA exposure.
Brine shrimp were divided into different tanks for exposure to varying concentrations (20 mM, 400 uM, 200 uM, and 100 uM) of EDTA.
Mortality and behavior of brine shrimp were recorded at 24 and 48 hours post-exposure.

The next data set concerns Escherichia coli (EC-18). In words: Zone of inhibition on agar plates (Example 4). Type of data set: cell-based. Particulars: for concentration with no killing / concentration with reduced growth / killing down to a concentration: pre-purification. How it is done:
(§1) ImmuCell Nisin A (96% pure) suspended in citric acid buffer (pH-3.4) at 4.86 mg/mL (ImmuCell, Portland, ME); Nisin A (Nissen®-A; 10% pure powder, Siveele, Breda, Netherlands): Nisin Z (26.7% pure) powder (Handry, Brussels, Belgium): Citric Acid Buffer (CAB) pH=3.4; Distilled H2O (dH2O); Instant Ocean (Instant Ocean Spectrum Brands, Blacksburg. VA): Artemia salina eggs: 60 mm Petri Dishes; Laboratory control strains of Staphylococcus aureus and Escherichia coli (“SA1” and “EC-18,” respectively): 15 mL Falcon Tubes; and Slide-A-Lyzer Dialysis Flask, 2K MWCO, 250 mL (Thermo Scientific, Rockford, IL) were used.
(§2) Nisin variants (Nisin A, Nisin Z, and ImmuCell Nisin A) were dissolved in either citric acid buffer (CAB, pH 3.4) for Nisin A or dH2O for Nisin Z to make a stock solution of 4.86 mg/mL. Serial dilutions were performed to achieve the different concentrations (4.86 mg/mL to 0.005 mg/mL) for the experiments.
(§3) Parallel to the toxicity tests, antibacterial efficacy was evaluated by applying Nisin solutions (before and after basic purification via Slide-A-Lyzer Dialysis) onto agar plates pre-inoculated with laboratory control strains Staphylococcus aureus (“SA1”) and Escherichia coli (“EC-18”). Zones of inhibition were measured 24 hours post-incubation at 37° C.
(§4) Mortality and behavior of the brine shrimp were recorded at 24 and 48 hours post-exposure. For the antimicrobial tests, the diameter of inhibition zones on agar plates containing the laboratory control strains were measured and recorded.

The subject of data set [2] is Staphylococcus aureus (SA1). In words: Zone of inhibition on agar plates (Example 4). The data set is classed as cell-based. To be noted: for concentration with no killing / concentration with reduced growth / killing down to a concentration: pre-purification. How it is done:
as §1, §2, §3, §4

The next data set relates to E. coli (ECX). In words: Zone of inhibition, Nisin with and without EDTA (Example 6). The data set is classed as cell-based, Escherichia coli. To be noted: 4.05 mg/mL Nisin in CAB, with or without 20.8 mM EDTA. How it is done: (§5) ImmuCell Nisin A (96% pure) suspended in citric acid buffer (pH 3.4) at 4.05 mg/mL (ImmuCell, Portland, ME); Nisin A (Nissen®-A; 10% pure powder, Siveele, Breda, Netherlands): Citric Acid Buffer (CAB) pH=3.4; 60 mm Petri Dishes; Laboratory control strain of Staphylococcus aureus (“SAI”), experimental strains of Escherichia coli (“ECY” and “ECX”) and Vibrio parahaemolyticus (“VPY”, and “VPX”); and ethylenediaminetetraacetic acid (EDTA: 99% pure) powder (USB Corporation) were used.
(§6) On the day before the experiment, stocks of Vibrio parahaemolyticus, Staphylococcus aureus, and Escherichia coli were prepared. An inoculation loop was sterilized, cooled, and used to extract cells, which were then cultured in nutrient broth at 37° C. for 16 to 20 hours. The bacterial density was adjusted to approximately 10^7 to 10^8 CFU/mL. Subsequently, 100 μL of each culture, normalized to about 10^6 to 10^7 CFU/mL, was evenly spread on agar plates using sterile glass beads, creating a uniform bacterial lawn. Four identical lawns were prepared for each bacterial type to ensure replicative testing of treatments.
(§7) Two forms of Nisin, 96% pure Nisin (Immucell) and 10% pure Niseen (Sivele), were prepared in citric acid buffer (CAB) at a concentration of 4.05 mg/mL. To assess synergistic effects, EDTA was added to each Nisin solution to achieve a final concentration of 20.8 mM.
(§8) […] of each treatment formulation were spotted onto the prepared bacterial lawns. These plates were then incubated at 37° C. for 16 to 20 hours to allow for bacterial growth and ZOI formation.
(§9) The ZOI were observed and measured in millimeters to measure the degree of bacterial growth suppression.

The next data set relates to E. coli (ECY). Described as above. Type of data set: cell-based, Escherichia coli. To be noted: 4.05 mg/mL Nisin in CAB, with or without 20.8 mM EDTA. The method, then:
as §5, §6, §7, §8, §9

The test system of data set [3] is Staphylococcus aureus (SA1). The data set is described as above. Type of data set: cell-based. To be noted: 4.05 mg/mL Nisin in CAB, with or without 20.8 mM EDTA. How it is done:
as §5, §6, §7, §8, §9

Data set [4] concerns Vibrio parahaemolyticus (VPX). The data set is described as above. Type of data set: cell-based. Particulars: 4.05 mg/mL Nisin in CAB, with or without 20.8 mM EDTA. The method, then:
as §5, §6, §7, §8, §9

Data set [5] has as its system Vibrio parahaemolyticus (VPY). The description is as above. Type of data set: cell-based. To be noted: 4.05 mg/mL Nisin in CAB, with or without 20.8 mM EDTA. How it is done: as §5, §6, §7, §8, §9
Data set [6] deals with brine shrimp (Artemia salina). Kind of data set: Brine shrimp toxicity of Nisin formulations (Example 4). Type of data set: in vivo. To be noted: for efficacy in reducing mortality in shrimp: Nisin Z (26.7% pure) compared with Nisin A (10% pure). The method, then: This Example describes the efficacy of various Nisins: Nisin Z, Nisin A, and ImmuCell Nisin A. This experiment assessed the safety and antimicrobial efficacy of various Nisin formulations in treating Vibrio parahaemolyticus infections, a common pathogen in aquaculture environments. Brine shrimp (Artemia salina) were utilized as a model organism to simulate potential impacts on Pacific whiteleg shrimp (Penaeus vannamei).
as §2
Artemia salina eggs were hatched in artificial seawater (Instant Ocean) under controlled conditions. Newly hatched brine shrimp were then exposed to varying concentrations of each Nisin solution in experimental tanks. A separate set of tanks was used for each type of Nisin formulation.
Control tanks (treated with either CAB or saline water) were prepared to observe the natural behavior and survival rate of Artemia salina without Nisin exposure.
Brine shrimp were divided into different tanks for exposure to varying concentrations (2.43 mg/mL, 0.608 mg/mL, 0.152 mg/mL, and 0.038 mg/mL) of Nisin A, Nisin Z, and ImmuCell Nisin A.
as §4

A short description of a further data set: Suspension in dH2O. The data set is classed as physicochemical. The method, then:
as §2

A short description of data set [7]: Retention by 2 kDa dialysis membrane. Type of data set: physicochemical. Particulars: water sampled at 4 and 24 hours. How it is done:
as §3
Next, the zones of inhibition for Nisin Z pre- and 48 hours post-2 kDa dialysis membrane purification were spotted onto a lawn of a control strain (SA1). […] Water samples were taken to test if any drug was lost at the 4 hour mark and again at the 24 hour mark. […] To remove additional contaminants, additional filtration is performed to purify Nisin Z.

The test system of a further data set is Vibrio parahaemolyticus. In words: Brine shrimp efficacy challenge trial with and without Nisin (Example 7). To be noted: vs control group exposed to Vibrio parahaemolyticus without Nisin Z; example in present tense. Type of data set: in vivo, Artemia salina. The method, then:
Brine shrimp (Artemia salina) are used and are prepared according to methods detailed in Examples 1-6. Additional materials, methods and experimental design may be similar to that described in Examples 1-6. A virulent strain of Vibrio parahaemolyticus is cultured to a concentration of about […], which is used for the challenge. Shrimp groups are divided: one group receives no treatment (as control) and the other group set receives brine infused with Nisin Z (concentration as determined optimal in prior experiments).

For data set [8] the following is noted: highly acidic conditions, high temperatures, proteases; cited from earlier work.
For a further data set, the system named is brine shrimp. In words: Pre- and post-dialysis toxicity assay and Nisin/EDTA toxicity assay (Example 9). Type of data set: in vivo, Artemia salina. Particulars: after 48-hour dialysis; example in present tense. The text has this: Utilizing materials, methods and experimental designs as described in Examples 1-6, Nisin Z is subjected to a 48-hour dialysis treatment to reduce impurities. The toxicity assay involves exposing brine shrimp to treated and untreated samples of Nisin Z, both alone and in combination with EDTA at a concentration of […].

Where [9] appears, read: all dilutions 4.86 mg/mL-0.005 mg/mL.
Where [10] appears, read: unpurified, in dH2O, 0.608 mg/mL.

Regarding `O=C(O)CN(CCN(CC(=O)O)CC(=O)O)CC(=O)O` [EDTA, ethylenediaminetetraacetic acid], in data set [1] (24 hours post-exposure), the mortality at 20000 µM came to 100% and the mortality entry is on record as “zero mortality”. For the same compound, in [1] (48 hours post-exposure), the mortality at 20000 µM worked out at 100% and the mortality result was “zero mortality”.

As for “ImmuCell Nisin A: ImmuCell Nisin A (96% pure) suspended in citric acid buffer (ImmuCell, Portland, ME) (ITSISLCTPGCKTGALMGCNMKTATCHCSIHVSK; cysteine pairing not given here; also: lantibiotic, modifications not placed; UniProt P13068 24-57, looked up)”, the zones of inhibition entry (in the data set on Escherichia coli (EC-18) (setting [9]); in data set [2] (setting [9])) was “clear zones of inhibition” in each case. Further, the “Diameter (zone of inhibition)” value is 10 mm in the data set on E. coli (ECX); 6 mm in the data set on E. coli (ECY); 13 mm in [3]; 4 mm in [4]; 4 mm in [5].

Regarding “Nisin A: Nisin A (Nissen®-A; 10% pure powder, Siveele, Breda, Netherlands) (ITSISLCTPGCKTGALMGCNMKTATCHCSIHVSK; cysteine pairing not given here; also: lantibiotic, modifications not placed; UniProt P13068 24-57, looked up)”, the “concentration with no killing” value (with Escherichia coli (EC-18); in data set [2]) was 0.005 mg/mL throughout. The “concentration with reduced growth” value (in the data set on Escherichia coli (EC-18); in data set [2]) was 0.009 mg/mL each time. Also, the “killing down to a concentration” value (with Escherichia coli (EC-18); in [2]) was 0.019 mg/mL each time. Also, the “efficacy in reducing mortality in shrimp” value in data set [6] was “comparable efficacy”. Moreover, the mortality entry is on record as “showed mortality” in data set [6] (unpurified, in dH2O, 0.152 mg/mL) and “drastic increase in mortality” in data set [6] (setting [10]). In addition, the “suspension with dH2O as solvent” value in the data set “Suspension in dH2O” was “did not go fully into suspension”. Besides, the “Diameter (zone of inhibition)” value came out at 8 mm with E. coli (ECX); 4 mm in the data set with E. coli (ECY); 13 mm in [3]; 4 mm in [4]; 0 mm in data set [5].

On to “Nisin Z: Nisin Z (26.7% pure) powder (Handry, Brussels, Belgium) (ITSISLCTPGCKTGALMGCNMKTATCNCSIHVSK; not fully specified (residues 2, 5, 33, bridges); cysteine pairing not given here; UniProt P29559 24-57, looked up)”, for which, in the data set on Escherichia coli (EC-18), the “concentration with no killing” value stood at 0.005 mg/mL, the “concentration with reduced growth” value worked out at 0.009 mg/mL and the “killing down to a concentration” value worked out at 0.019 mg/mL. Moreover, the “zones of inhibition pre- and 48 hours post-dialysis” value in data set [2] (2 kDa dialysis membrane purification) is “same sized zones”. In addition, in [2], the “concentration with no killing” value was 0.005 mg/mL, the “concentration with reduced growth” value worked out at 0.009 mg/mL and the “killing down to a concentration” value was 0.019 mg/mL. Also, in data set [6], the “efficacy in reducing mortality in shrimp” value is listed as “comparable efficacy”. In addition, the toxicity entry in data set [6] (unpurified, in dH2O, 0.152 mg/mL to 0.038 mg/mL, 48 hours) is “no toxicity”. Besides, the mortality result in [6] (setting [10]) was “drastic increase in mortality”. Further, the “suspension with dH2O as solvent” value in the data set “Suspension in dH2O” is “went into suspension fully”. For the same compound, in data set [7], the “loss of Nisin into the dH2O” value is reported as “no loss of Nisin”. The mortality rates result with Vibrio parahaemolyticus is “significantly lower mortality rates”.

Consider aureocin A53, for which, in data set [8], the stability entry is “stable under highly acidic conditions, high temperatures, and is not affected by proteases”.

Turning to “post-dialyzed Nisin Z: Nisin Z subjected to a 48-hour dialysis treatment to reduce impurities (ITSISLCTPGCKTGALMGCNMKTATCNCSIHVSK; cysteine pairing not given here; also: lantibiotic nisin-Z, modifications not given here; UniProt P29559 24-57, looked up)”, the toxicity result with brine shrimp is listed as “reduced toxicity”.

A word on the mortality: it is the share of the test organisms that died.
